Measurements published in ChEMBL document CHEMBL4043168, “The design and SAR of a novel series of 2-aminopyridine based LRRK2 inhibitors” (Bioorg Med Chem Lett, 2017).

Experiments:
[1] = molecular target: Serine/threonine-protein kinase/endoribonuclease IRE1 (Homo sapiens) (UniProt O75460); test: Inhibition of IRE1 conserved Lys2 (DLKPHNILISMPNAHGK) in human PBMC at 1 uM
[2] = molecular target: Receptor-interacting serine/threonine-protein kinase 3 (Homo sapiens) (UniProt Q9Y572); test: Inhibition of RIPK3 conserved Lys2 (DLKPSNVLLDPELHVK) in human PBMC at 1 uM
[3] = molecular target: PAN2-PAN3 deadenylation complex subunit PAN3 (Homo sapiens) (UniProt Q58A45); test: Inhibition of PAN3 Protein Kinase Domain (VMDPTKILITGK) in human PBMC at 1 uM
[4] = molecular target: T1, Mitogen-activated protein kinase kinase kinase 5 (Homo sapiens) (UniProt Q99683); test: Inhibition of MAP3K5 conserved Lys1 (IAIKEIPER) in human PBMC at 1 uM
T1 sequence (whole entry): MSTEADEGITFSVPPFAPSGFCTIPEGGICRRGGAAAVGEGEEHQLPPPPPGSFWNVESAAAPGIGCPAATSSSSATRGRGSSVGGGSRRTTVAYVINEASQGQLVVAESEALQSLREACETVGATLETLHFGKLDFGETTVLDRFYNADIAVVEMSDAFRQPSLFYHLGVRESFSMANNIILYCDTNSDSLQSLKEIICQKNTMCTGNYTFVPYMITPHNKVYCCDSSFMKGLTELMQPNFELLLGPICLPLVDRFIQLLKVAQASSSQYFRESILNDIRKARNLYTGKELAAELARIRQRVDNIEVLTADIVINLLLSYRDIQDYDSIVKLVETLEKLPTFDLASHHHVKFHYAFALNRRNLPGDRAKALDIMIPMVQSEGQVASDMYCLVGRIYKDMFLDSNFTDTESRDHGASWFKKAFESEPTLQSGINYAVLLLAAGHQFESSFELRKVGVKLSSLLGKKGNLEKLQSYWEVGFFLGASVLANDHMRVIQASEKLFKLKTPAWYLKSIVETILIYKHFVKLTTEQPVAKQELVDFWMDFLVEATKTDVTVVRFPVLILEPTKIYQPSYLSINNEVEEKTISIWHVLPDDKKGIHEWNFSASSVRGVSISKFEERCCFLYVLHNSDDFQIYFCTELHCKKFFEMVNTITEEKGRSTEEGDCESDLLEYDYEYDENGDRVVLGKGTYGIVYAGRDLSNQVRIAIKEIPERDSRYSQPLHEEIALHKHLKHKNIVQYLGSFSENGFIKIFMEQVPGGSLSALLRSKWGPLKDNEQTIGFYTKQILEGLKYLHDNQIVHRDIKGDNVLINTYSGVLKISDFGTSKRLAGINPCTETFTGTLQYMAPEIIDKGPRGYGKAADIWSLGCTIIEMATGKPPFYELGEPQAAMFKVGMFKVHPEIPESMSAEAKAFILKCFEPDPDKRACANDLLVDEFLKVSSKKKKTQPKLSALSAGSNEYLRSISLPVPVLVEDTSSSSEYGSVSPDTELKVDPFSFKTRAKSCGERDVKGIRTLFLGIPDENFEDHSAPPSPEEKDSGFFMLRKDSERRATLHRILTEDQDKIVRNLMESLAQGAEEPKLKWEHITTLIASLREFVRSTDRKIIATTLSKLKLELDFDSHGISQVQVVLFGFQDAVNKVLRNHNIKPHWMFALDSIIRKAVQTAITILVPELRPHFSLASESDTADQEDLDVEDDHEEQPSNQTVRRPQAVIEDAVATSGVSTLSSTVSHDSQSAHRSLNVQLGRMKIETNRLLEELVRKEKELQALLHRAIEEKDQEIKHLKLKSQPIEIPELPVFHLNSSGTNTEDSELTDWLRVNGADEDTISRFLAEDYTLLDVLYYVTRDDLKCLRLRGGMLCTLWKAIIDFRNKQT

[5] = molecular target: Calcium/calmodulin-dependent protein kinase type II subunit alpha (Homo sapiens) (UniProt Q9UQM7); test: Inhibition of CaMK2a labeling at conserved Lys2 (DLKPENLLLASK) in human PBMC at 0.1 uM
Sequence of Calcium/calmodulin-dependent protein kinase type II subunit alpha (Homo sapiens) (Q9UQM7 whole entry): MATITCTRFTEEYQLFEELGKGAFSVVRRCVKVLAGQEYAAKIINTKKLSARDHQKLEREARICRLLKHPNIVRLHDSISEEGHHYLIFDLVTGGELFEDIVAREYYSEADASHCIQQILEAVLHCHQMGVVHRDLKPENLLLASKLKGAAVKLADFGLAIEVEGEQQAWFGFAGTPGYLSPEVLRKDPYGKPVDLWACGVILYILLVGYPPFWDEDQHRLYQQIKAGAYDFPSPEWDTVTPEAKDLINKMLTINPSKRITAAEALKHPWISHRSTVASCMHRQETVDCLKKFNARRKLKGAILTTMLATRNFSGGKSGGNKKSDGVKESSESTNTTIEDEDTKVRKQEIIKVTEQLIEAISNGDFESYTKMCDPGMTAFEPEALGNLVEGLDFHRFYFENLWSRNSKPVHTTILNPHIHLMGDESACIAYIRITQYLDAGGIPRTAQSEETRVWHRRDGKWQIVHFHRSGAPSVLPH

[6] = molecular target: T2, STE20-related kinase adapter protein alpha (Homo sapiens) (UniProt Q7RTN6); test: Inhibition of STLK5 conserved Lys2 (SVKASHILISVDGK) in human PBMC at 1 uM
T2 sequence (whole entry): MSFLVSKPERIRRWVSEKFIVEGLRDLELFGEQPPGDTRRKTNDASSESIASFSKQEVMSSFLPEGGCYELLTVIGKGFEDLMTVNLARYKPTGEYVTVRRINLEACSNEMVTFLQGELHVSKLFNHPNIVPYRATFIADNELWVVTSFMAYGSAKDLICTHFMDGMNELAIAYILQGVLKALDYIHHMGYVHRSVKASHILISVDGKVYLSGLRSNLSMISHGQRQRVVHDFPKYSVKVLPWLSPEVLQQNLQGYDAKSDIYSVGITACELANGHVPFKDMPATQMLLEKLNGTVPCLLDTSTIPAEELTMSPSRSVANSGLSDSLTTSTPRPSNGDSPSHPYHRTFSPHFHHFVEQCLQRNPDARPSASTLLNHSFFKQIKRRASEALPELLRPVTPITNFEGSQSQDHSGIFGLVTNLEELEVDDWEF

[7] = molecular target: T3, Serine/threonine-protein kinase 4 (Homo sapiens) (UniProt Q13043); test: Inhibition of MST1 conserved Lys1 ETGQIVAIKQVPVESDLQEIIK in human PBMC at 0.1 uM
T3 sequence (whole entry): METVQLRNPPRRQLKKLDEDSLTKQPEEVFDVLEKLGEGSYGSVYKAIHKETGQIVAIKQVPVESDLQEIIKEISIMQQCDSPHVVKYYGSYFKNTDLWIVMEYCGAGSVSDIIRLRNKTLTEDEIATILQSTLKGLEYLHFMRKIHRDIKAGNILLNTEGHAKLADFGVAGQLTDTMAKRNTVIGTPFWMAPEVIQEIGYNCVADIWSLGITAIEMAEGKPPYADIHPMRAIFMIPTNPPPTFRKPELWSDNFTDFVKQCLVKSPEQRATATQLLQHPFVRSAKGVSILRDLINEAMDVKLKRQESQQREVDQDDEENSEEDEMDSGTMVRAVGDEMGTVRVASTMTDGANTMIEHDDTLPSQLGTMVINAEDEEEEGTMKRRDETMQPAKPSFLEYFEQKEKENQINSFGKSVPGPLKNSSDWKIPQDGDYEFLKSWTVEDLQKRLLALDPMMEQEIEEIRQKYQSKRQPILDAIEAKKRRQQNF

[8] = molecular target: Serine/threonine-protein kinase SMG1 (Homo sapiens) (UniProt Q96Q15); test: Inhibition of SMG1 ATP binding site (SYPYLFKGLEDLHLDER) in human PBMC at 1 uM
Sequence of Serine/threonine-protein kinase SMG1 (Homo sapiens) (Q96Q15 whole entry): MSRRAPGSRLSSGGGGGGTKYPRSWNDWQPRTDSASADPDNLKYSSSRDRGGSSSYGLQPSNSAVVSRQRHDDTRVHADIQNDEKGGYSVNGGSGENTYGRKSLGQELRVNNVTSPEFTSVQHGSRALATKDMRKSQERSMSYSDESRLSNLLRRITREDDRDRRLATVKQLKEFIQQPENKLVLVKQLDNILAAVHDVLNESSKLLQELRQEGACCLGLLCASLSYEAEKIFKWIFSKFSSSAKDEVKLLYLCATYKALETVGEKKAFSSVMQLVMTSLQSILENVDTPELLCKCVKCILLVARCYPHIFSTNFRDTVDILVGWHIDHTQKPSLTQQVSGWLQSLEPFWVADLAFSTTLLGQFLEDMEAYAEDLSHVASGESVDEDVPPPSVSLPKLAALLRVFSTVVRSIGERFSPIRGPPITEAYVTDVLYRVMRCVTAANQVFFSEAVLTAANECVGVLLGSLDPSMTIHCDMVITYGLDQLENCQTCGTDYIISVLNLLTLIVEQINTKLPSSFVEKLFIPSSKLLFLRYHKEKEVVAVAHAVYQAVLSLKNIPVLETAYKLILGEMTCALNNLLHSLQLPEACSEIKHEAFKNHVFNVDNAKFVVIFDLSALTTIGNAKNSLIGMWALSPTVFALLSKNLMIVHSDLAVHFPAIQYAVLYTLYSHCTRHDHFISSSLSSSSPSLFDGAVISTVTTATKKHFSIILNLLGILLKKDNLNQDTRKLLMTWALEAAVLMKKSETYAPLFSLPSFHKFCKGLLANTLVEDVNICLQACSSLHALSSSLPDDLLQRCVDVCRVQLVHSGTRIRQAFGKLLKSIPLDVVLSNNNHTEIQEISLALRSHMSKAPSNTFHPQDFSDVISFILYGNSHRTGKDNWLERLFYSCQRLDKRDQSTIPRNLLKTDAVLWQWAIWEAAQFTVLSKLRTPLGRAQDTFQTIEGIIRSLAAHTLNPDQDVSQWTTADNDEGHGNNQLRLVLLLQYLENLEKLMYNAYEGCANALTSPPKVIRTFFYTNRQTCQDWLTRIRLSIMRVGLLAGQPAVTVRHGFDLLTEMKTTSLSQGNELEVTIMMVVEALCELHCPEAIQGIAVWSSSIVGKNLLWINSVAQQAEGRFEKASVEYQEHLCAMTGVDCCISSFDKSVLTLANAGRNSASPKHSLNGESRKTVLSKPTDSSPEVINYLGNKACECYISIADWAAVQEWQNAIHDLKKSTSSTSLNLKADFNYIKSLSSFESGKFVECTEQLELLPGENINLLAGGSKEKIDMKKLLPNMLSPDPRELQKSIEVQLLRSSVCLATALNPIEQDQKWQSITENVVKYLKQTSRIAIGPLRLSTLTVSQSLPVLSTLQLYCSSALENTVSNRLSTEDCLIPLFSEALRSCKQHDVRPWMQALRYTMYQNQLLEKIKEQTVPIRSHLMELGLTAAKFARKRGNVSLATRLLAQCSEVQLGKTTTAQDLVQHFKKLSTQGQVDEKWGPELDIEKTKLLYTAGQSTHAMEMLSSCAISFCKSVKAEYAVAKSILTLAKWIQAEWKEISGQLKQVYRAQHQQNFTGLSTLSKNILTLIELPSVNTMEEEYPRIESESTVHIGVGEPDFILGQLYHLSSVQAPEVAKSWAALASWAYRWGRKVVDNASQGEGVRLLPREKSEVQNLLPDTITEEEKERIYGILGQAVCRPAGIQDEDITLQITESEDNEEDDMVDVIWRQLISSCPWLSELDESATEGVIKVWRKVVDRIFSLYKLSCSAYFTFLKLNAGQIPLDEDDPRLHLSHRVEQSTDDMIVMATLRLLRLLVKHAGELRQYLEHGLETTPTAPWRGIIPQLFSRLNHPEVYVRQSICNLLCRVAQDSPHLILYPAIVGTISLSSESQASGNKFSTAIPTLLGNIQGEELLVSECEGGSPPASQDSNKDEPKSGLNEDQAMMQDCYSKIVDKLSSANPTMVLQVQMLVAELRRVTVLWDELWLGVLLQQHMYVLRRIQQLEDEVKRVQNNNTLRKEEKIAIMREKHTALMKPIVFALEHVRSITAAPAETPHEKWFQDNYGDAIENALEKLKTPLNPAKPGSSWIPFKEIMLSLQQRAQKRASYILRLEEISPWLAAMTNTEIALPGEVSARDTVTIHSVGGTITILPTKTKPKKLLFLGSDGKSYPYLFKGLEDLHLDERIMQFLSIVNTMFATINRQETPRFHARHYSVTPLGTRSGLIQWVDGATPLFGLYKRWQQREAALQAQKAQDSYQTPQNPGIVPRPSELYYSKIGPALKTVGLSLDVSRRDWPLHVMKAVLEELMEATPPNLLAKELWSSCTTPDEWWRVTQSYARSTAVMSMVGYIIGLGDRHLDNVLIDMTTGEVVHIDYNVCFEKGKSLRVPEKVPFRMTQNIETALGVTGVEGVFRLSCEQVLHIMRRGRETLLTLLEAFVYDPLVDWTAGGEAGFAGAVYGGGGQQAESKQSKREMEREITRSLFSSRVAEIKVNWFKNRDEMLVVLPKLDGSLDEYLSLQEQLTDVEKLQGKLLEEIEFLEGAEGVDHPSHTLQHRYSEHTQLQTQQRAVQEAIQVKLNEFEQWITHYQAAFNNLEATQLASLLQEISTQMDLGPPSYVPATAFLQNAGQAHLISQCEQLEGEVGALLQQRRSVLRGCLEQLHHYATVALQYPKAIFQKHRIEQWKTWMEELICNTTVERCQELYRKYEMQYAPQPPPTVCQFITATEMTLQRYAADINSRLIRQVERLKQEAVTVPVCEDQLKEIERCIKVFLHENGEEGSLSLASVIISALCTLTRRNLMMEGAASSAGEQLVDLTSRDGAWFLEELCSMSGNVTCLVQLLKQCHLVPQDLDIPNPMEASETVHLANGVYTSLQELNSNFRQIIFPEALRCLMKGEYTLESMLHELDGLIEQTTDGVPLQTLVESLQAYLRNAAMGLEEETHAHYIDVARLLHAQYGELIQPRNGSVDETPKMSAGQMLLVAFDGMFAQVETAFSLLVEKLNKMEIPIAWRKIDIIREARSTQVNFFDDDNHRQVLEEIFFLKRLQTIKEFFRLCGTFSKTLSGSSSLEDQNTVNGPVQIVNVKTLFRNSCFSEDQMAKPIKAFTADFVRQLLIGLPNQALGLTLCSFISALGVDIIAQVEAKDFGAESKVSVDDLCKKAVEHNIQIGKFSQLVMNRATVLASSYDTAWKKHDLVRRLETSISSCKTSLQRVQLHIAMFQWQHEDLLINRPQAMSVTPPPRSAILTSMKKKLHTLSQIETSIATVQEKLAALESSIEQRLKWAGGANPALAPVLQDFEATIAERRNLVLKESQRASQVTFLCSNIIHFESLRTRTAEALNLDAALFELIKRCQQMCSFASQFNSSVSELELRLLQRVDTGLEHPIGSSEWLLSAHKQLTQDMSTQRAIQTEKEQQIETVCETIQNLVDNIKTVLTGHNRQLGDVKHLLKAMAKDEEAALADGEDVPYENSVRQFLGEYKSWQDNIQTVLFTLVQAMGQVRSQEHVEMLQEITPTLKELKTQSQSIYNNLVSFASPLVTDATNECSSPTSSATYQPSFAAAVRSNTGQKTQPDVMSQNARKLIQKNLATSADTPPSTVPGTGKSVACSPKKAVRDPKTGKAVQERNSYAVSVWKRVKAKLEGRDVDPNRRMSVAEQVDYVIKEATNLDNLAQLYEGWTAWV

[9] = molecular target: RAC-alpha serine/threonine-protein kinase (Homo sapiens) (UniProt P31749); test: Inhibition of AKT1 labeling at ATP binding site (GTFGKVILVK) in human PBMC at 0.1 uM

Sequence of Serine/threonine-protein kinase/endoribonuclease IRE1 (Homo sapiens) (O75460 19-977 limits assumed): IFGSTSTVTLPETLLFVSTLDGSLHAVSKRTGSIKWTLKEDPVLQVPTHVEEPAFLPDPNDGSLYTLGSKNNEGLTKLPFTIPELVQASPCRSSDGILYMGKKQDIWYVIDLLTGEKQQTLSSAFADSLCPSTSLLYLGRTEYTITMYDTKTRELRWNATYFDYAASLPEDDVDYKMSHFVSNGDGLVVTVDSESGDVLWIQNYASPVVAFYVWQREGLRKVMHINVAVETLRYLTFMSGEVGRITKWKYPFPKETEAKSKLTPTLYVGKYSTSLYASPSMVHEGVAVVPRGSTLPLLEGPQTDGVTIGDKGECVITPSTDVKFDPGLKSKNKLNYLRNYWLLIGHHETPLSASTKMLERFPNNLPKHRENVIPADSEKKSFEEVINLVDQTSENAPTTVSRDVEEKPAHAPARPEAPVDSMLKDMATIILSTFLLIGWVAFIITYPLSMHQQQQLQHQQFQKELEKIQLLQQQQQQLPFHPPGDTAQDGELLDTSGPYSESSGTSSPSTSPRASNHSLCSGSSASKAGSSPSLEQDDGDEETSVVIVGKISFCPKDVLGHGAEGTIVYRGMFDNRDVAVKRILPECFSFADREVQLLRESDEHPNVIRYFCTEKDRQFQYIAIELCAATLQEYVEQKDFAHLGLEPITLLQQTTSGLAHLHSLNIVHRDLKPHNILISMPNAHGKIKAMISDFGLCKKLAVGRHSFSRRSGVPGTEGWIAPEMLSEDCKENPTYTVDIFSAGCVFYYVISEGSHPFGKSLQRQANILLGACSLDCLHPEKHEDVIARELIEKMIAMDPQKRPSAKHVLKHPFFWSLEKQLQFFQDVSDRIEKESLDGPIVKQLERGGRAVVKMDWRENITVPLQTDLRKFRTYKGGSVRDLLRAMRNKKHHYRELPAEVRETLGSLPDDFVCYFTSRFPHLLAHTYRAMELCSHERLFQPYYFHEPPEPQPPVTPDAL

For `CC(C)n1cc(-c2cc(-c3ccc(CN4CCOCC4)cc3)cnc2N)nn1`, the inhibition [1] was 26.6%, the inhibition [2] was -7.3% and the inhibition [3] was 0.1%. The inhibition [4] was -3.3%, the inhibition [5] was -7.5% and the inhibition [6] was 8.7%. For the same molecule, the inhibition [7] was -6.6%, the inhibition [8] was 6.6% and the inhibition [9] was 21%.
